The data set can be described thus: activity coefficient (dimensionless); of the first substance listed, at infinite dilution; xn = mol fraction of the nth substance listed. The settings on record: Liquid, Chromatography, x1 = 0.

Numbers after ± are expanded uncertainties.

Turning to `C#CCCCC` [1-hexyne] + CCCC[P+](C)(CCCC)CCCC.COS(=O)(=O)[O-], the activity coefficient is, setting by setting: (308.15 K) 1.8 ± 0.1; (318.15 K) 1.7 ± 0.1.

With `C=CCCCCC` [1-heptene] + CCCC[P+](C)(CCCC)CCCC.COS(=O)(=O)[O-], the activity coefficient reads like this: (308.15 K) 8.2 ± 0.6; (318.15 K) 8 ± 0.5; (328.15 K) 7.1 ± 0.5.

On to `c1ccccc1` [benzene] + CCCC[P+](C)(CCCC)CCCC.COS(=O)(=O)[O-], for which the activity coefficient reads like this: (308.15 K) 1 ± 0.1; (318.15 K) 1 ± 0.1; (328.15 K) 0.9 ± 0.1.

For the molecule `C=CCCCCCC` [oct-1-ene] + CCCC[P+](C)(CCCC)CCCC.COS(=O)(=O)[O-], the activity coefficient (308.15 K) amounted to 10.1 ± 0.7, the activity coefficient (318.15 K) is 10 ± 0.7 and the activity coefficient (328.15 K) was determined as 8.9 ± 0.6.

Turning to `C1CCCCCC1` [cycloheptane] + CCCC[P+](C)(CCCC)CCCC.COS(=O)(=O)[O-], the activity coefficient was 6.5 ± 0.4 (308.15 K), 6.4 ± 0.4 (318.15 K) and 5.3 ± 0.4 (328.15 K).

As to `CCCCC` [pentane] + CCCC[P+](C)(CCCC)CCCC.COS(=O)(=O)[O-], the activity coefficient reads like this: (308.15 K) 8.1 ± 0.6; (318.15 K) 7.7 ± 0.5; (328.15 K) 6.7 ± 0.5.

In the case of `C1CCCC1` [cyclopentane] + CCCC[P+](C)(CCCC)CCCC.COS(=O)(=O)[O-], the activity coefficient by setting is: (308.15 K) 4.5 ± 0.3; (318.15 K) 4.3 ± 0.3; (328.15 K) 3.5 ± 0.2.

Consider `CCCCCCCC` [octane] + CCCC[P+](C)(CCCC)CCCC.COS(=O)(=O)[O-], for which the activity coefficient is, setting by setting: (308.15 K) 17.3 ± 1.2; (318.15 K) 15.9 ± 1.1; (328.15 K) 13.8 ± 0.9.

Turning to `CCCCCC` [hexane] + CCCC[P+](C)(CCCC)CCCC.COS(=O)(=O)[O-], the activity coefficient runs as follows: (308.15 K) 10.3 ± 0.7; (318.15 K) 9.5 ± 0.7; (328.15 K) 8.4 ± 0.6.

For `C1CCCCC1` [cyclohexane] + CCCC[P+](C)(CCCC)CCCC.COS(=O)(=O)[O-], the activity coefficient is, setting by setting: (308.15 K) 5.5 ± 0.4; (318.15 K) 5.4 ± 0.4; (328.15 K) 4.6 ± 0.3.

For `CCCCCCC` [heptane] + CCCC[P+](C)(CCCC)CCCC.COS(=O)(=O)[O-], the activity coefficient by setting is: (308.15 K) 13.4 ± 0.9; (318.15 K) 12.2 ± 0.8; (328.15 K) 10.7 ± 0.7.

`C=CCCCC` [hex-1-ene] + CCCC[P+](C)(CCCC)CCCC.COS(=O)(=O)[O-]: the activity coefficient came out at 6.4 ± 0.4 (308.15 K), 6 ± 0.4 (318.15 K) and 5.3 ± 0.4 (328.15 K).

The values are drawn from the NIST ThermoML archive (doi:10.1016/j.fluid.2006.03.002).
